Assay: Microsomal stability assay (pooled male and female HLM, LC-MS)
Type: in vitro ADME, human
Details: HLM, incubation time of 120 min
Protocol: To this end, the compounds were incubated with pooled male and female HLM for 120 min, and the compound degradation as well as the formation of metabolites was monitored by liquid chromatography-mass spectrometry (LC-MS) analysis.
The inhibitory activity of the final compounds on GSK-3β was determined by the Promega ADP-Glo™ Kinase assay (Promega Corporation, Madison, WI 53711, USA), which was performed in white, non-treated 384-well plates (Corning). The experiments were carried out as quadruplicates using a concentration of 0.58 ng/µL of recombinant human GSK-3β, 0.2 µg/µL GSK-3 substrate G50-58 […]
(sequence: […](pS)EDEEE) and 25 µM ATP in the presence of serial dilutions of the final compounds. In addition, two control experiments with uninhibited kinase and two blank experiments with ATP/substrate solution were performed.
In detail, the kinase was pre-incubated with the final compounds for 10 min at rt. Then substrate/ATP was added to start the reaction, which was run for 1 h at rt. The next steps consisted of addition of ADP-Glo™ reagent (5 µL, then 1 h incubation) and Kinase detection reagent (10 µL, then 30 min incubation). Finally, the luminescence was measured on a FilterMax F5 microplate reader (Molecular Devices) (integration time 500 ms). GraphPad Prism v. 7.03. was used to normalize the raw data to the values of the control and blank experiments and generate absolute IC 50 values.
2. Interaction Frequencies of (R)-2 and (R)-28 in the 1 µs Molecular Dynamics Simulations
Figure S1. Observed interactions of (R)-2 (a) and (R)-28 (b) in the MD simulations. Both ligands […]
mediates water-bridged interactions to Asp200 or Ser66. Interactions with >10% frequency are shown.
3. Microsomal Stability Assay
Pooled male and female human liver microsomes (HLMs) (Lot: SLBQ7487V) were purchased from Merck (Schnelldorf, Germany). […]
The metabolite formation was analyzed with an Alliance 2695 Separations Module (Waters […]
The absorbance was read at 570 nm using a Spectramax i5 microplate reader. Results were expressed as percentage of control.

unchanged inhibitor detected after incubation: ~70%
SMILES: CCC(=O)N1CCC[C@@H](N(C)c2ncnc3[nH]c4cc(Br)ccc4c23)C1 [Compound (R)-28, (R)-1-(3-((7-bromo-9H-pyrimido[4,5-b]indol-4-yl)(methyl)amino)piperidin-1-yl)propan-1-one]

Reference: paper PMC7659979, “Discovery and Evaluation of Enantiopure 9H-pyrimido[4,5-b]indoles as Nanomolar GSK-3β Inhibitors with Improved Metabolic Stability” (International Journal of Molecular Sciences, 2020)
